The values that follow come from patent US20120277208A1 (ASTELLAS PHARMA INC., priority 2009, published 2012).

The target in assay [1] is T1, recombinant human liver type GK (GST-hGK2) (Homo sapiens, UniProt P35557).
T1 construct: made in house; host or cells: E. coli BL21
T1 sequence (P35557 1-466 isoform P35557-2): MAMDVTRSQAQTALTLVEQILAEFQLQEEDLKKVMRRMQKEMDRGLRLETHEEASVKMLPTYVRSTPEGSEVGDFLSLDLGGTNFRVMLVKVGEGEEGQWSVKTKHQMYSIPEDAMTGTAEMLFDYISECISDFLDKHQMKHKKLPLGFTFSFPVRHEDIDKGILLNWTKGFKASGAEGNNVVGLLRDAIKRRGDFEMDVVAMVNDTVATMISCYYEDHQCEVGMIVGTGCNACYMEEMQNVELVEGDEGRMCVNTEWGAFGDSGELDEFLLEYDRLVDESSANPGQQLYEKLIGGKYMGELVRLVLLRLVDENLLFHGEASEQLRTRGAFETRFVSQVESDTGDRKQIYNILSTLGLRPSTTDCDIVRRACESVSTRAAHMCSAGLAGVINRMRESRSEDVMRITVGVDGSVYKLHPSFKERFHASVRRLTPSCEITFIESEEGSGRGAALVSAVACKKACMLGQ
As to the kind of experiment: Measurement of glucokinase (GK) activation. The assay is classed as biochemical. Particulars: 10 min; test compound final concentration of 10 μM; 5 mM glucose; 27° C.; relative to DMSO. The procedure: Test Example 1 Measurement of Glucokinase (GK) Activation
The present test was carried out in accordance with the method described in Science 301: 370-373, 2003 with partial modification, and is summarized as below.
First, cloning of GK (GenBank No. AK122876) was carried out. PCR was carried out using 5′-[…]-3′ (SEQ ID NO: 1) and 5′-[…]-3′ (SEQ ID NO: 2) as primers, and pME18S-FL3-Glucokinase isoform 2 as a template. The resulting reaction product was TA-cloned into a pGEM-T easy vector, and then digested with EcoRI and XhoI, and the fragment was ligated to a pGEX-5X-1 vector digested in the same manner. Using this plasmid DNA (pGEX-human Glucokinase 2), a recombinant human liver type GK (GST-hGK2) fused with GST (Glutathione S-transferase) was expressed in E. coli (strain BL21), and purified by Glutathione Sepharose.
The reaction of GK was carried out at 27° C. on a 96-well plate. First, 1 μL of a test compound diluted with dimethylsulfoxide (DMSO) (final concentration of 10 μM) was added to a 89 μL of an enzyme mixed liquid (25 mM HEPES pH 7.4, 25 mM KCl, 2 mM MgCl2, 1 mM ATP, 0.1% BSA, 1 mM DTT, 1 mM NADP (nicotinamide adenine dinucleotide phosphate), 2.5 U/mL glucose-6-phosphate dehydrogenase, GST-hGK2 adjusted to ΔODCont as described later to be about 0.05 to 0.10, all of which are final concentrations). Subsequently, 10 μL of a substrate solution (final concentration of 5 mM glucose) was added thereto to initiate the reaction. In order to quantify a final product NADPH, an absorbance at a wavelength of 340 nm was measured, and the GK activation (%) of the test compound was calculated from the increase (DOD) in the absorbance during the first 10 minutes after the initiation of the reaction, using the following formula.
GK activation (%)=[(ΔODTest)−(ΔODCont)]/(ΔODCont)×100
ΔODTest: ΔOD at the test compound
Further, Ex indicates Example compound Number.

Assay [2] concerns ICR mice. The assay can be described thus: Oral glucose loading test in normal mice. Particulars: Mus musculus, AUC lowering rate of blood glucose, immediately before to 2 hours after glucose loading, vs solvent control, 10 mg/kg orally, ICR mice fasted overnight, glucose loading after 30 minutes, read-out: Blood glucose level lowering rate (%). The assay is classed as in vivo. On the procedure: Test Example 2 Oral Glucose Loading Test in Normal Mice
The test compound was dissolved in a solvent (5% Cremophor, 5% aqueous DMSO solution), 10 mg/kg of the test compound was orally administered to ICR mice after fasting overnight, and after 30 minutes, oral glucose loading was carried out. Immediately before the administration of the test compound, immediately before the glucose loading, and 0.25, 0.5, 1, and 2 hours after the glucose loading, blood was collected and blood glucose levels were measured. An AUC lowering rate (%) of the blood glucose levels from immediately before the glucose loading to 2 hours after the glucose loading with respect to that of the solvent control was calculated.

As to `COC[C@H](C)Oc1cc(Oc2ccc(-c3nc(C(N)=O)no3)nc2)cc(C(=O)Nc2ccn(C)n2)c1` [Ex 1], in assay [1], the activation at 10 µM was 295%. Besides, the inhibition in vivo at 10 mg/kg in assay [2] worked out at 37%.

Turning to `CNC(=O)c1noc(-c2ccc(Oc3cc(OC(C)C)cc(C(=O)Nc4ccn(C)n4)c3)cn2)n1` [Ex 2], in assay [1], the activation at 10 µM was 338%. The inhibition in vivo at 10 mg/kg in assay [2] was 59%.

With `CNC(=O)c1nnc(-c2ccc(Oc3cc(OC(C)C)cc(C(=O)Nc4ccn(C)n4)c3)cn2)o1` [Ex 3], the activation at 10 µM in assay [1] came to 380%. Besides, the inhibition in vivo at 10 mg/kg in assay [2] was found to be 64%.

As for `CC(C)Oc1cc(Oc2ccc(-c3nc(C(N)=O)no3)nc2)cc(C(=O)Nc2ccn(C)n2)c1` [Ex 9], the activation at 10 µM in assay [1] was 319%. Besides, in assay [2], the inhibition in vivo at 10 mg/kg was found to be 46%.

`CC(C)Oc1cc(Oc2ccc(-c3nc(C(=O)N(C)C)no3)nc2)cc(C(=O)Nc2ccn(C)n2)c1` [Ex 10]: the activation at 10 µM in assay [1] is 380%. For the same compound, the inhibition in vivo at 10 mg/kg in assay [2] is 61%.

Take `CC(C)Oc1cc(Oc2cnc(N(CC3CC3)C(=O)C3CCOCC3)cn2)cc(C(=O)Nc2ccn(C)n2)c1` [Ex 23]: the activation at 10 µM in assay [1] is 347%. For the same compound, in assay [2], the inhibition in vivo at 10 mg/kg turned out to be 52%.

Regarding `C[C@@H](CO)Oc1cc(Oc2cnc(N(CC3CC3)C(=O)C3CCOCC3)cn2)cc(C(=O)Nc2ccn(C)n2)c1` [Ex 24], in assay [1], the activation at 10 µM amounted to 269%. For the same compound, the inhibition in vivo at 10 mg/kg in assay [2] worked out at 49%.

Regarding `COC[C@H](C)Oc1cc(Oc2cnc(N(CC3CC3)C(=O)CN(C)C)cn2)cc(C(=O)Nc2ccn(C)n2)c1` [Ex 29], the activation at 10 µM in assay [1] turned out to be 287%. Moreover, the inhibition in vivo at 10 mg/kg in assay [2] is 49%.

Regarding `CC(C)Oc1cc(Oc2cnc(-c3noc(C(=O)N(C)C)n3)cn2)cc(C(=O)Nc2ccn(C)n2)c1` [Example 67], the activation at 10 µM in assay [1] amounted to 498%. Besides, the inhibition in vivo at 10 mg/kg in assay [2] worked out at 57%.

Consider `CC(C)Oc1cc(Oc2cnc(N(CC3CC3)C(=O)N3CCNC3=O)cn2)cc(C(=O)Nc2ccn(C)n2)c1` [Example 74], for which the activation at 10 µM in assay [1] was 298%. For the same compound, in assay [2], the inhibition in vivo at 10 mg/kg worked out at 45%.

`CC(C)Oc1cc(Oc2cnc(-c3nnc(C(=O)N(C)C)o3)cn2)cc(C(=O)Nc2ccn(C)n2)c1` [Example 98]: in assay [1], the activation at 10 µM amounted to 498%. In addition, the inhibition in vivo at 10 mg/kg in assay [2] stood at 54%.

On to `CC(=O)N(CC1CC1)c1cc(Oc2cnc(N(CC3CC3)C(=O)C3CCOCC3)cn2)cc(C(=O)Nc2ccn(C)n2)c1` [Example 101], for which, in assay [1], the activation at 10 µM came to 345%. The inhibition in vivo at 10 mg/kg in assay [2] was determined as 48%.

On to `COCCOCC(=O)N(CC1CC1)c1cnc(Oc2cc(OC(C)C)cc(C(=O)Nc3ccn(C)n3)c2)cn1` [Example 119], for which the activation at 10 µM in assay [1] is 376%. Also, the inhibition in vivo at 10 mg/kg in assay [2] was found to be 40%.

For the compound `COC[C@H](C)Oc1cc(Oc2ccc(-c3noc(C(=O)N(C)C)n3)nc2)cc(C(=O)Nc2ccn(C)n2)c1` [Example 130], the activation at 10 µM in assay [1] was 502%. Further, the inhibition in vivo at 10 mg/kg in assay [2] amounted to 65%.

As to `CNC(=O)c1noc(-c2cnc(Oc3cc(OC(C)C)cc(C(=O)Nc4ccn(C)n4)c3)cn2)n1` [Example 138], the activation at 10 µM in assay [1] came out at 316%. Further, the inhibition in vivo at 10 mg/kg in assay [2] is 61%.

Regarding `COCCOCC(=O)N(CC1CC1)c1cnc(Oc2cc(O[C@@H](C)CO)cc(C(=O)Nc3ccn(C)n3)c2)cn1` [Example 156, 3-[(5-{(cyclopropylmethyl)[(2-methoxyethoxy)acetyl]amino}pyrazin-2-yl)oxy]-5-{[(2S)-1-hydroxypropan-2-yl]oxy}-N-(1-methyl-1H-pyrazol-3-yl)benzamide], in assay [1], the activation at 10 µM turned out to be 237%. In addition, in assay [2], the inhibition in vivo at 10 mg/kg stood at 18%.

`C[C@@H](CO)Oc1cc(Oc2cnc(N(CC3CC3)C(=O)[C@H]3CCCO3)cn2)cc(C(=O)Nc2ccn(C)n2)c1` [Example 158]: in assay [1], the activation at 10 µM amounted to 237%. Further, the inhibition in vivo at 10 mg/kg in assay [2] is 29%.

In the case of `C[C@@H](CO)Oc1cc(Oc2ccc(-c3nc(C(N)=O)no3)nc2)cc(C(=O)Nc2ccn(C)n2)c1` [Example 162], the activation at 10 µM in assay [1] came out at 306%. Moreover, the inhibition in vivo at 10 mg/kg in assay [2] was found to be 25%.
